The source of these data is PMC12264121 (Scientific Reports, 2025).

Each structure is given as a SMILES string.

In general, IC50 refers to the concentration needed to halve the response being measured. Read a high IC50 as weaker potency.

Holding throughout (assay type): biochemical
The target in assay [1] is T1, hCA-IX (Homo sapiens, UniProt Q16790). Briefly: biochemical.
Assay [2] has as its target T2, hCA-XII (Homo sapiens, UniProt O43570). The experiment in a line: Carbonic anhydrase inhibition assay.
Assay [3] deals with T2, hCA-XII. The experiment in a line: Enzyme kinetics. As to conditions: CA-XII; substrate 0-900 µM; inhibitor 0, 0.4, 0.6, 0.8 µM.
Assay [4] deals with T3, hCA-II (Homo sapiens, UniProt P00918). Briefly: Carbonic anhydrase inhibition assay.
Assay [5] has as its target T1, hCA-IX. Briefly: Enzyme kinetics. The conditions noted are these: CA-IX; substrate 0-900 µM; inhibitor 0, 0.1, 0.2, 0.3 µM.
In assay [6] the target is T3, hCA-II. The experiment in a line: Enzyme kinetics. As to conditions: CA-II; substrate 0-900 µM; inhibitor 0, 0.2, 0.4, 0.6 µM.

T2 sequence (O43570 25-354): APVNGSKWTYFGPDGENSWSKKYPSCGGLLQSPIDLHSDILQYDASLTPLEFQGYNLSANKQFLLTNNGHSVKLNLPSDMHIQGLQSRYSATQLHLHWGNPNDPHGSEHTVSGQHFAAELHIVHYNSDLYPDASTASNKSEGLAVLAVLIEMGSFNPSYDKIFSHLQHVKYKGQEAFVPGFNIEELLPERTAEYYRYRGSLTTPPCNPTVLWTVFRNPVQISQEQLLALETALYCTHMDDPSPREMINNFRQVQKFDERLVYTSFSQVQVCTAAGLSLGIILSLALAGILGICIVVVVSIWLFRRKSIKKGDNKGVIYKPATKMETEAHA

With `NS(=O)(=O)c1ccc(-c2ccc(Nc3ccc(Cl)cc3)cc2)cc1` [Compound 9a, 4’-((4-chlorophenyl)amino)-[1,1’-biphenyl]−4-sulfonamide], the IC50 in assay [1] came out at 2790 ± 20 nM; in assay [2], 1050 ± 100 nM.
For `COC(=O)c1ccc(Nc2ccc(-c3ccc(S(N)(=O)=O)cc3)cc2)cc1` [Compound 9b, Methyl 4-((4’-sulfamoyl-[1,1’-biphenyl]−4-yl)amino)benzoate], the results for the IC50 in assay [1], in assay [2] and in assay [4] were 1460 ± 80 nM, 690 ± 150 nM and 1030 ± 100 nM, respectively. Besides, the “Mode of Enzyme Inhibition” value in assay [3] is listed as “Competitive”.
As to `Cc1cc(C)cc(Nc2ccc(-c3ccc(S(N)(=O)=O)cc3)cc2)c1` [Compound 9c, 4’-((3,5-dimethylphenyl)amino)-[1,1’-biphenyl]−4-sulfonamide], in assay [1], the “inhibition of hCA-IX in words” value is “inactive”. Moreover, the “inhibition of hCA-XII in words” value in assay [2] is “inactive”. Further, in assay [4], the “inhibition of hCA-II in words” value is “inactive”.
Take `NS(=O)(=O)c1ccc(-c2ccc(Nc3ccncc3)cc2)cc1` [Compound 9d, 4’-(pyridin-4-ylamino)-[1,1’-biphenyl]−4-sulfonamide]: the “inhibitor potential as compared to standard inhibitor acetazolamide” value in assay [1] (hCA-IX) was 8 fold. This compound came in with an IC50 in assay [4] of 1010 ± 100 nM. Also, the “Mode of Enzyme Inhibition” value in assay [5] is given as “Uncompetitive”.
For `NS(=O)(=O)c1ccc(-c2ccc(Nc3ccc(F)c(Cl)c3)cc2)cc1` [Compound 9e, 4’-((3-chloro-4-fluorophenyl)amino)-[1,1’-biphenyl]−4-sulfonamide], the IC50 in assay [1] was 3430 ± 150 nM. In addition, the “inhibition of hCA-XII in words” value in assay [2] was “moderate inhibition”. Also, in assay [6], the “Mode of Enzyme Inhibition” value was “Competitive”.
